Reference: PMC2995924 (International journal of high throughput screening, 2010)
Like-named read-outs stand apart in the source and are kept apart here.

Legend:
rat S100B [1] = biological target: T1, rat S100B (Rattus norvegicus, UniProt P04631); assay: Fluorescence polarization competition assay; format: binding
T1 sequence (P04631 1-92): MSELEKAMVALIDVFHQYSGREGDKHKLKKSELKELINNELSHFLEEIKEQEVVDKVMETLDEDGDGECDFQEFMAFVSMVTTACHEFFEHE

Ca2+-bound S100B = biological target: T2, Ca2+-bound S100B (Rattus norvegicus, UniProt P04631); assay: NMR 1H-15N HSQC chemical shift perturbation secondary screen; format: binding; conditions: for NMR (confirmed to bind S100B via NMR HSQC experiments): 10-fold excess compound versus S100B (100 μM; 10 mM Ca2+)
T2 sequence (P04631 1-92): T1 sequence (P04631 1-92)

S100B = biological target: T3, S100B (Rattus norvegicus, UniProt P04631); assay: Binding monitored by change in the compound's intrinsic fluorescence
T3 sequence (P04631 1-92): T1 sequence (P04631 1-92)

TAMRA-TRTK = assay: fluorescence polarisation
rat S100B [2] = biological target: T1, rat S100B; assay: Fluorescence polarization binding assay of labeled peptides; conditions: Ca2+-S100B

Question: With `CN(C)CCCN1c2ccccc2Sc2ccc(Cl)cc21` [SC0067, chlorpromazine] as the molecule, how does the IC50 (rat S100B [1]) read?
Answer: The IC50 was 2220 ± 1360 µM.

Question: And the Kd (rat S100B [1])?
Answer: The Kd was 697 ± 428 µM.

Question: How did the Kd (rat S100B [1]; calculated from FPCA IC50 with the equation of Nikolovska-Coleska et al) turn out when `C[CH2][Hg][S]c1ccccc1C(=O)[O-].[Na+]` [SC0332, thimerosal] was run?
Answer: The Kd was 55.2 ± 5.1 µM.

Question: What about the “NMR (confirmed to bind S100B via NMR HSQC experiments)” value (Ca2+-bound S100B) of the same molecule?
Answer: Its value is “Yes”.

Question: Which results are given for `C[n+]1cc2c3c(ccc2c2ccc4cc5c(cc4c21)OCO5)OCO3` [SC0844, sanguinarine]?
Answer: IC50 (rat S100B [1]): 35.9 ± 16.4 µM; Kd (rat S100B [1]): 10.7 ± 4.9 µM; NMR (confirmed to bind S100B via NMR HSQC experiments) (Ca2+-bound S100B): Yes; Kd (S100B): 5.8 µM

Question: With `O=C(O)c1ccccc1S` [thiosalicylic acid] as the molecule, how does the “Inhibition of TAMRA-TRTK binding in the FPCA” value (rat S100B [1]; even at 2.5 mM compound) read?
Answer: The value was “did not significantly inhibit”.

Question: And the “Chemical shift perturbations of the HSQC NMR spectra” value (Ca2+-bound S100B; 1 mM compound added to 100 μM S100B, fast-exchange regime)?
Answer: The value was “significant chemical shift perturbations”.

Question: With “C68/84S mutant rat S100B (natural protein)” as the molecule, how does the Kd (TAMRA-TRTK) read?
Answer: Its Kd is 2.42 µM.

Question: With “FITC-p53_367–393: FITC-labeled peptide of human p53 residues 367–393” as the molecule, how does the “Affinity (KD) of FITC-labeled peptide compared with unlabeled version” value (rat S100B [2]) read?
Answer: The value was “significantly higher affinity than the unlabeled version”.
